Where “and” joins values, the source holds several entries; their conditions need not be identical. Equal values may be shown once.
Legend:
Format in all cases: functional
[1] = molecular target: Chromo domain-containing protein 1 (Saccharomyces cerevisiae (strain ATCC 204508 / S288c) (Baker's yeast), UniProt P32657); assay: ScCHD-1 Enzyme Inhibition Assay
[2] = molecular target: T1, Ubiquitin-activating enzyme e1, putative (Leishmania donovani (strain BPK282A1), UniProt E9BSI1); assay: Leishmania donovani Ubiquitin Activating Enzyme (LdE1)
T1 sequence (E9BSI1 whole entry): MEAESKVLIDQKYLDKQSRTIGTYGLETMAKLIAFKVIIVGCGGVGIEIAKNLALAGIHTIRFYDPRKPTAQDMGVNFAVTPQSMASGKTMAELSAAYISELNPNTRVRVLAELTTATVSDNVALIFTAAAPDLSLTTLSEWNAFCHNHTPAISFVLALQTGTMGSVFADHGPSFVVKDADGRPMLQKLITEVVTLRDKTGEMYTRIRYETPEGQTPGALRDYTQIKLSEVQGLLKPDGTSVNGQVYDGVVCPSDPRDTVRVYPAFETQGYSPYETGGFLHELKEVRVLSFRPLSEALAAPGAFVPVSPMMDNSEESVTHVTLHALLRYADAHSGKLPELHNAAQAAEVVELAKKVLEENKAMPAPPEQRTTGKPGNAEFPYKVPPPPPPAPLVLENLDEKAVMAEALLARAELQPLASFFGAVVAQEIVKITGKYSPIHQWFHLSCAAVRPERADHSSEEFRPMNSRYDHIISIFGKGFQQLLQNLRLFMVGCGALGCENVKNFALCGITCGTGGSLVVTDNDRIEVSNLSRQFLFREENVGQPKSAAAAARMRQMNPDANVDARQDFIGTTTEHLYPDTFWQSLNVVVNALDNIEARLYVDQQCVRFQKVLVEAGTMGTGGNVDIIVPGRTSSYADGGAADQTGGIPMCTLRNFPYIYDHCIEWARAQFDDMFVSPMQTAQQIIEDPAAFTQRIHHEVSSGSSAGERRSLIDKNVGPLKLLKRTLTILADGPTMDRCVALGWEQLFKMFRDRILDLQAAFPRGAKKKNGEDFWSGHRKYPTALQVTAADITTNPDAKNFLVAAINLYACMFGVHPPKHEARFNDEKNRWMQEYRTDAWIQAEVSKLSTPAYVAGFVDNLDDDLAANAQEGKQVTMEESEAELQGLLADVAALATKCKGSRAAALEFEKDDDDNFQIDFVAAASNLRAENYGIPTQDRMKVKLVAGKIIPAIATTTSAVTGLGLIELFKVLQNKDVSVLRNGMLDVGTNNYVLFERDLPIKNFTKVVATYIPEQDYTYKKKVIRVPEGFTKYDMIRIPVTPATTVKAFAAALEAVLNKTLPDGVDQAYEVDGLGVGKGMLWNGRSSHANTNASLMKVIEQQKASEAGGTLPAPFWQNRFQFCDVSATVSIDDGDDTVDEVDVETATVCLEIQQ

[3] = molecular target: T2, Histidine--tRNA ligase (Leishmania infantum, UniProt A4I591); assay: Leishmania infantum Histidine tRNA synthetase (LdHisRS)
T2 sequence (A4I591 whole entry): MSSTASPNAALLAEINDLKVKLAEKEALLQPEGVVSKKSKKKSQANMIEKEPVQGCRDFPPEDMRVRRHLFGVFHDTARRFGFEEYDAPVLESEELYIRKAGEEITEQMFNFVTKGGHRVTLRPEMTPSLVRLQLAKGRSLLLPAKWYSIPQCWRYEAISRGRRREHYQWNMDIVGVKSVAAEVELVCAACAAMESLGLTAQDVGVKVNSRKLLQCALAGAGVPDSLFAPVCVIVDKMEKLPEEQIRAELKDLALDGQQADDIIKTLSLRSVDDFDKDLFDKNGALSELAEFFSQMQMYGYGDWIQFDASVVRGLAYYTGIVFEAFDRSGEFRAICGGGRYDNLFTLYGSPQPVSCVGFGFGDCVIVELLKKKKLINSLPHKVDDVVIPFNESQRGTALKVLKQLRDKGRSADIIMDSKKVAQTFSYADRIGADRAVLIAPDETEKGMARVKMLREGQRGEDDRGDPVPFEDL

[4] = molecular target: ClpP1P2 (Mycobacterium tuberculosis (strain ATCC 25618 / H37Rv), UniProt P9WPC3+P9WPC5); assay: in vitro assay to detect presence of AMC directly proportional to the activity of ClpP1P2. GHDDI collaboration.
[5] = molecular target: Tryptophan--tRNA ligase (Mycobacterium tuberculosis (strain ATCC 25618 / H37Rv), UniProt P9WFT3); assay: Biochemical assay for Mt-TrpRS
[6] = molecular target: Lysine--tRNA ligase (Plasmodium falciparum (isolate 3D7), UniProt Q8IDJ8); assay: Pf-KRS-1 (Lysyl-RNA Synthetase-1, KRS-1, cytosolic KRS) from Plasmodium falciparum. Inhibitor assay, 384 well plate, luminescence read.
[7] = molecular target: Polyketide synthase Pks13 (Mycobacterium tuberculosis (strain ATCC 25618 / H37Rv), UniProt I6X8D2); assay: Mycobacterium tuberculosis Polyketide synthase 13 Thioesterase (PKS13)

| Structure (SMILES) | IC50 [1] [µM] | further results |
| --- | --- | --- |
| CCOc1ccc(N2CCCN=C2NC(=O)c2ccccc2C)cc1 | > 29.5 | – |
| O=C1CSC(c2cccs2)c2cnn(C3CCCC3)c2N1 (centres undefined) | > 29.5 | – |
| Cn1nc2c(cc1=O)CN(Cc1nnc(-c3ccco3)o1)CC2 | – | IC50 [2]: > 100 µM; IC50 [3]: 44 µM and 59.9 µM |
| COCCN(C(=O)c1cnccn1)c1nc2c(s1)CCc1c-2cnn1C | – | IC50 [2]: > 100 µM; IC50 [3]: > 100 µM |
| O=C(Cn1c(=O)nc2n1C(=O)N(c1ccccc1)C2)Nc1ccccc1 | > 29.5 | – |
| Cc1nc(C)n(CC2CCCN2Cc2ncc(-c3ccccc3)o2)n1 (centres undefined) | – | IC50 [4]: > 100 µM; IC50 [2]: > 100 µM |
| Cc1ccc(S(=O)(=O)NCCNC(=O)c2ccoc2)cc1F | > 29.5 | – |
| COC[C@@]12CC[C@@H](N3CCOCC3)C[C@H]1CCN(c1ncccn1)C2 | > 29.5 | – |
| Cc1ccccc1C1CCCN1C(=O)CN1CC2(CCNCC2)OC1=O (centres undefined) | > 29.5 | – |
| CC(C)c1noc(CCC(=O)NC(C)c2nnc3n2CCCCC3)n1 (centres undefined) | > 29.5 | – |
| CN(C(=O)C1CCCCC1)[C@@H]1CCC[C@@H](N2CCOCC2)[C@@H]1O | > 29.5 | – |
| Cc1ccc(=O)n(CC2(O)CCN(Cc3cc(C)c(O)c(C)c3)CC2)n1 | > 29.5 | – |
| CC(C)N1CCC(Cc2cncc(-c3cccc(C(=O)O)c3)n2)C1 (centres undefined) | – | IC50 [5]: > 195 µM; IC50 [2]: > 100 µM |
| NC(=O)c1ccc(CNC(=O)Nc2cn[nH]c2)cc1 | – | IC50 [5]: > 195 µM; IC50 [2]: > 100 µM |
| CNS(=O)(=O)Cc1ccc(CNC(=O)Nc2cn[nH]c2)cc1 | – | IC50 [6]: > 50.1 µM; IC50 [2]: > 100 µM |
| CCNC(=O)[C@@H]1C[C@H](NC(=O)Cc2ccsc2)CN1Cc1ccc(C)o1 | > 29.5 | – |
| Cn1nc2c(cc1=O)CN(Cc1coc(-c3cccc(F)c3)n1)CC2 | – | IC50 [2]: > 100 µM; IC50 [3]: 17 µM and 14.3 µM |
| Cc1ccc(C(=O)NCCCN2CCOCC2)c(Cl)c1 | > 29.5 | – |
| CN(C)CC1(O)CCN(S(=O)(=O)c2ccc(F)cc2)C1 (centres undefined) | > 29.5 | – |

| Structure (SMILES) | IC50 [1] [µM] | further results |
| --- | --- | --- |
| O=C(CCc1c[nH]cn1)N1CC[C@@H](c2ccc3ccccc3c2)[C@H](O)C1 | > 29.5 | – |
| CCCN(C(=O)c1cnccn1)c1nc2c(s1)CCc1c-2cnn1C | – | IC50 [2]: > 100 µM; IC50 [3]: 60.2 µM and 72.5 µM |
| CC(C)COCc1cncc2c1CCN(Cc1cnn(C)c1)C2 | > 29.5 | – |
| CCNC(=O)CCN1CCC(c2cc(N3CCOCC3)nc(C)n2)CC1 | > 29.5 | – |
| CN(C)c1ccc(CNc2cncc(-n3cccn3)n2)cc1 | > 29.5 | – |
| CCc1ccc(NC(=O)N2C[C@H]3C[C@H](C(=O)NC)[C@@H](C2)O3)cc1 | > 29.5 | – |
| Cc1cc(C(=O)N2CCCCC2c2nc(C)cs2)[nH]n1 (centres undefined) | > 29.5 | – |
| CCc1nc(C2CCCN(C(=O)c3cn(C)nc3C)C2)no1 (centres undefined) | > 29.5 | – |
| CN(C)c1ccc(C(=O)N2CCN(C(=O)N3CCCCC3)CC2)nn1 | – | IC50 [2]: > 100 µM; IC50 [7]: > 100 µM |
| CC(=O)c1cccc(NC(=O)Cn2cc(I)cn2)c1 | > 29.5 | – |
| O=C(CS(=O)(=O)CC1CCCCC1)NC1CCCCNC1=O (centres undefined) | > 29.5 | – |
| CC(C)(C)n1ncc2c1NC(=O)CC2c1ccccc1 (centres undefined) | > 29.5 | – |
| O=C1N(Cc2cccc(F)c2F)CCCC1(O)CNC1CCCC1 (centres undefined) | > 29.5 | – |
| O=C1CSC(c2ccsc2)c2sccc2N1 (centres undefined) | > 29.5 | – |
| CCn1nc(CC(C)C)cc1C(=O)N1CC[C@@H](O)C1 | > 29.5 | – |
| CC(Cn1cccn1)NC(=O)N1CCN(Cc2cccs2)CC1 (centres undefined) | > 29.5 | – |
| Cn1nc2c(cc1=O)CN(Cc1nnc(-c3ccc(F)cc3)o1)CC2 | – | IC50 [2]: > 100 µM; IC50 [3]: 83.1 µM and 70.4 µM |
| COCc1nc2cc(NCc3ccc(C)o3)ccc2o1 | – | IC50 [6]: > 50.1 µM; IC50 [2]: > 100 µM; IC50 [3]: 67.5 µM and 55.3 µM |

Reference: ChEMBL document CHEMBL3988442, “University of Dundee, Small-Polar-MMV Screening Library” (2021)
